Laboratory results taken from PMC11054433, “Nature-Inspired 1-Phenylpyrrolo[2,1-a]isoquinoline Scaffold for Novel Antiproliferative Agents Circumventing P-Glycoprotein-Dependent Multidrug Resistance” (Pharmaceuticals, 2024).
pIC50, pKd: −log10 of the molar value. Values joined by “and” are separate entries in the source; they are usually repeats but may differ in a detail not shown here. Equal entries are not always repeated. Where two headings read alike, the source gives them in different places. Each block holds one compound with its values, some of them ahead of it.

What was measured:
[1] = system: HCT116 (colon cancer) cells; conditions: mean (SD), cited from earlier work
[2] = system: HeLa (adenocarcinoma of the cervix uterus) cells; conditions: mean (SD), cited from earlier work
P-glycoprotein (P-gp) [3] = molecular target: T1, P-glycoprotein (P-gp) (Homo sapiens, UniProt P08183); parameters: expressed in transfected cells; host or cells: MDCK-MDR1 (gift from Prof. P. Borst, NKI-AVL); method as in PMID 29802687; conditions: MDCK-MDR1 cells; ref [9]; cited from earlier work
[4] = system: RD (rhabdomyosarcoma) cells; conditions: mean (SD), cited from earlier work
[5] = system: A549 (lung adenocarcinoma) cells; conditions: mean (SD), cited from earlier work
[6] = system: HeLa (adenocarcinoma of the cervix uterus) cells; assay: MTT antiproliferative (cytotoxicity) assay, HeLa cells; format: cell-based, Human; conditions: 72 h, mean (SD), triplicate, n.a. = not active at 100 μM, >100 = less than 60% inhibition at 100 μM
Method: (§1) The newly synthesized 1-Ph-DHPIQs, along with the previously reported derivatives 4a, 4c, 6a and 6c, with camptothecin and doxorubicin as positive controls, were tested at the maximum concentration of 100 μM for their antiproliferative activity, using an MTT assay on RD, HCT116, HeLa and A549 cancer cell lines. Compounds showing more than 50% inhibition were tested at lower scalar concentrations, and IC50 values were calculated by interpolation of the dose-response curves (Table 1). […]
(§2) The antiproliferative activity of the newly synthesized compounds, along with some previously reported analogs, and camptothecin and doxorubicin as positive controls was determined by the MTT (3-(4,5-dimethylthiazol-2-yl)-2,5-diphenyltetrazolium bromide) assay. The cells were seeded at a concentration of 1 × 10 ^4 cells/200 μL in a 96-well plate and cultured at 37 °C in a humidified atmosphere with 5% CO2. After 24 h of incubation, scalar concentrations of each test compound (100 to 1.56 μmol·L^−1) were added to the cancer cell culture and the cells were then cultured under the same conditions for 72 hr. Each concentration of the test compound was assayed in triplicate. […] Wells with the 0.1% v/v DMSO were used as controls. After incubation, 20 μL of MTT (5 mg·mL^−1) was added to each well and the plates were incubated for a further 2 h. Next, media were removed from the plates, and 100 μL of DMSO was added to each well to dissolve the formed formazan crystals. Using a flatbed analyzer (Victor^3, PerkinElmer, Waltham, MA, USA), the optical density was determined at 530 nm, minus the measured background absorbance at 620 nm. The concentration value, which causes 50% inhibition of cell population growth (IC50), was determined from the dose-dependent curves using the OriginPro 9.0 software.

[7] = Hydrolytic stability monitored by RP-HPLC; format: physicochemical; conditions: 0.15 M KCl
Description: In particular, the transformation of the DHPIQ-2-aldehyde via Mannich reaction (8b,c) opens the road to future developments of new water-soluble antiproliferative DHPIQ derivatives endowed with the ability to inhibit P-gp and reverse MDR.

[8] = molecular target: T2, human serum albumin (HSA) (Homo sapiens, UniProt P02768); conditions: 10 μM, pH 7.4
Method: (§3) By plotting the response at equilibrium, the dissociation constant (KD) value was determined for each test compound.
(§4) Fatty acid-free HSA (A3782 from Merck, KGaA Sigma-Aldrich, Darmstadt, Germany) was applied to functionalize the surface of a COOH V sensor chip (Pall FortèBio, Fremont Boulevard, CA, USA), by using amine coupling (EDC/NHS). HSA aqueous stock solution was diluted at the final concentration of 50 μg·mL^−1 in 10 mM sodium acetate buffer (pH 5.0), and immobilization in peripheral flow cells 1 and 3 (unmodified dextran surface in middle flow cell 2 used as a reference) at a final apparent level of about 5000 RU was achieved by applying the following protocol: injection of EDC/NHS (freshly mixed 0.4 M EDC and 0.1 M NHS) 1:1 v/v at a flow of 25 μL·min^−1 for 4 min; injection of HSA solution at a flow of 25 μL·min^−1 for 8 min; capping on unreacted activated carboxyl groups by injection of 1 M ethanolamine solution (pH 9) at a flow of 25 μL·min^−1 for 8 min. The functionalized surface was then treated with repeated injection of 4 M NaCl, as a regenerating reagent, and conditioned overnight prior to use with pH 7.4 PBS (10 mM NaH2PO4 and 150 mM NaCl) as a running buffer. Each cycle (without the need of regeneration) for binding assay to HSA was carried out in PBS/4% v/v DMSO and consisted of a run buffer injection (60 s), injection of analyte single concentration for 120 s (ranging from 1 to 200 μM) at a flow 20 μL·min^−1, and a dissociation phase for 150 s (flow 20 μL·min^−1). Each measurement was performed at least in triplicate and analyzed by using QDAT software, vers 2.2.0.7 (non-linear regression analysis of 1:1 stoichiometric reversible binding model), and double referencing.

[9] = system: A549 (lung adenocarcinoma) cells; assay: MTT antiproliferative (cytotoxicity) assay, A549 cells; format: cell-based, Human; conditions: mean (SD), triplicate, n.a. = not active at 100 μM, >100 = less than 60% inhibition at 100 μM
Method: The antiproliferative activity of the newly synthesized compounds, along with some previously reported analogs, and camptothecin and doxorubicin as positive controls was determined by the MTT (3-(4,5-dimethylthiazol-2-yl)-2,5-diphenyltetrazolium bromide) assay. […] Each concentration of the test compound was assayed in triplicate. […] Wells with the 0.1% v/v DMSO were used as controls. After incubation, 20 μL of MTT (5 mg·mL^−1) was added to each well and the plates were incubated for a further 2 h. Next, media were removed from the plates, and 100 μL of DMSO was added to each well to dissolve the formed formazan crystals. Using a flatbed analyzer (Victor^3, PerkinElmer, Waltham, MA, USA), the optical density was determined at 530 nm, minus the measured background absorbance at 620 nm.

P-glycoprotein (P-gp) [10] = molecular target: T1, P-glycoprotein (P-gp); assay: Calcein-AM transport inhibition in MDCK-MDR1 cells overexpressing P-gp; conditions: for pIC50: P-gp, IC50, MDCK-MDR1 cells, calcein-AM, mean (SD), at least two independent experiments in triplicate
Method: (§5) The P-gp inhibitory potency of eight DHPIQs was evaluated by measuring the transport inhibition of calcein-AM, a profluorescent P-gp substrate, in the MDCK-MDR1 cell line overexpressing P-gp. Moreover, to evaluate the MRP1 inhibitor activity, the same compounds were screened in MDCK-MRP1 cells overexpressing MRP1.
(§6) According to previously described assays [9], MDCK-MDR1 and MDCK-MRP1 cell lines (50,000 cells per well) were seeded into a black CulturePlate 96-well plate with 100 μL medium and allowed to become confluent overnight. […] Saline buffer (100 μL) was added to each well, and the plate was read by a PerkinElmer Victor3 spectrofluorimeter at excitation and emission wavelengths of 485 nm and 535 nm, respectively. In these experimental conditions, calcein cell accumulation in the absence and in the presence of the test compound was evaluated, and the fluorescence basal level was estimated by untreated cells. In the treated wells, the increase of fluorescence with respect to basal level was measured. IC50 values were determined by interpolating the curve of fluorescence increase percentage versus log [conc.].

P-gp versus MRP1 = P-gp versus MRP1 (Homo sapiens, UniProt P08183); assay: as above; conditions: human, MDCK-MDR1 cells and MDCK-MRP1 cells, probe calcein-AM
Method: as §5, §6

[11] = system: RD (rhabdomyosarcoma) cells; assay: MTT antiproliferative (cytotoxicity) assay, RD cells; format: cell-based, Human; conditions: 72 h, mean (SD), triplicate, n.a. = not active at 100 μM, >100 = less than 60% inhibition at 100 μM
Method: as §1, §2

[12] = system: HCT116 (colon cancer) cells; assay: MTT antiproliferative (cytotoxicity) assay, HCT116 cells; format: cell-based, Human; conditions: mean (SD), triplicate, n.a. = not active at 100 μM, >100 = less than 60% inhibition at 100 μM
Method: as §1, §2

[13] = molecular target: multidrug-resistance-associated protein-1 (MRP1) (Homo sapiens, UniProt P33527); assay: Calcein-AM transport inhibition in MDCK-MRP1 cells overexpressing MRP1
Method: as §5, §6

[14] = Lipophilicity by RP-HPLC (polycratic capacity factor); format: physicochemical; conditions: capacity factor extrapolated to 100% aqueous mobile phase, aqueous component pH 4.7
Method: To quantitate the effect of hydrophobicity on the biological activity of the examined compounds, a relative lipophilicity scale was determined by RP-HPLC [20]. The polycratic capacity factor (log k′w) for each compound in Table 2 was experimentally determined (details in the experimental section) and compared with 1-octanol–water partition coefficient calculated (Clog P) with ACDLabs software (release 10.0; Advanced Chemistry Development, Inc., Toronto, ON, Canada). Log k′w values are quite well correlated with Clog Ps for the whole series (r^2 = 0.791). However, omitting from the regression the two Mannich bases 8b and 8c, which, due to their basicity (pKas about 6.9, estimated by ACDLabs software), should be predominantly in the protonated forms at pH 4.7 (i.e., the pH of the aqueous component of the mobile phase in RP-HPLC), the correlation slightly improves (r^2 = 0.859), providing a linear equation with a slope equal to +0.8 and an intercept of about −0.1.
The lipophilicity parameters were determined by an RP-HPLC technique. Methanol solution of DHPIQ derivatives (1 mg/mL) were analyzed by an Agilent 1260 infinite HPLC system (Agilent Technologies, Milan, Italy) equipped with a diode array detector (DAD), and a Phenomenex, Kinetex 5 μ, C18, 100 Å (150 × 4.6 mm), and eluted with different percentage of mobile phase composition (0.05 increments of MeOH volume fractions in 20 mM ammonium formate buffer at pH 4.7 or water 0.1% v/v TFA, with φ ranging between 0.85 and 0.30). The chromatographic measurements were carried out at 25 ± 1 °C at a flow rate of 1 mL·min^−1 and at 265, 290, 320 nm wavelengths. The log of capacity factors (log k′ = log (tR − t0)/t0) of each compound at different mobile phase compositions was calculated; tR represents the retention time of the solute and t0 is the column dead time, measured as the elution time of a KNO3 solution in MeOH. For each compound, the log k′ values increased linearly with decreasing MeOH volume fraction. The logarithms of the capacity factor extrapolated to 100% aqueous mobile phase (log k′w) were calculated from the linear regressions on at least five data points (r^2 > 0.9984).

[15] = molecular target: T2, human serum albumin (HSA); assay: Binding affinity to immobilized HSA by surface plasmon resonance (SPR)
Method: as §3, §4

[16] = Kinetic solubility in PBS by RP-HPLC; format: physicochemical; conditions: phosphate buffered saline, 25 °C, kinetic from dmso stock
Method: Sample solution at 200 μM in PBS (50 mM, pH 7.4, KCl 0.15 M) from a 10 mM stock solution in DMSO was incubated at room temperature (25 ± 1 °C) for 2 h, following shaking of the suspension on an orbital shaker at 250 rpm, and then separated by […]. Immediately after the filtration step, 100 µL of filtrate was transferred into 100 µL of 1:1 (v/v) mixture of DMSO and PBS (50 mM, pH 7.4, KCl 0.15 M), to avoid precipitation from the saturated solution and analyzed by HPLC. The peak area was plotted against a calibration curve of the tested compound in MeOH [21]. Analytical conditions were as follows. Mobile Phase: MeOH/ammonium formate 20 mM pH 4.7 (70:30, 75:25); MeOH 0.1% TFA/H2O 0.1% TFA (70:30, 60:40); stationary phase: Phenomenex, Kinetex 5 μ, C18, 100 Å (150 × 4.6 mm); flux: 1 mL/min; injection: 10 μL, 265, 290, 320 nm wavelength. HPLC analyses were performed on an Agilent HPLC 1260 Infinity Series Integrated System (Agilent Technologies, Milan, Italy).

[17] = aqueous buffer, PBS (50 mM, pH 7.4, 0.15 M KCl) at 25 ± 1 °C, read-out: S (solubility)

T2 sequence (P02768 25-609): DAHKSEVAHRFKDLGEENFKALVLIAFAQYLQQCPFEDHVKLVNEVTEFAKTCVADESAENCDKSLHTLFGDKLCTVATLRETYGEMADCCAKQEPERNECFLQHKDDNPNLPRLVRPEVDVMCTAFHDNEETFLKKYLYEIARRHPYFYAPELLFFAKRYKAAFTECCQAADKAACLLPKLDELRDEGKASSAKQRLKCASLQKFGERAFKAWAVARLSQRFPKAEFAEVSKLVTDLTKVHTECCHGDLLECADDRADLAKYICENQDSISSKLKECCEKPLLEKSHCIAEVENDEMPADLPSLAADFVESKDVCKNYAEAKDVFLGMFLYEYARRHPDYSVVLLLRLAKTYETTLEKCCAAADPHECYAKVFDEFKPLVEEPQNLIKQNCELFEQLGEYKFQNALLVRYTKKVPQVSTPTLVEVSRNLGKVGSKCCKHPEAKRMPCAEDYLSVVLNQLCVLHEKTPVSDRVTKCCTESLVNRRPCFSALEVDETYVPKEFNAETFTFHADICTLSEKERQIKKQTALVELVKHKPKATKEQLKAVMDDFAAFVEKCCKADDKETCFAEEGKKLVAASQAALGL
T1 sequence (P08183 whole entry): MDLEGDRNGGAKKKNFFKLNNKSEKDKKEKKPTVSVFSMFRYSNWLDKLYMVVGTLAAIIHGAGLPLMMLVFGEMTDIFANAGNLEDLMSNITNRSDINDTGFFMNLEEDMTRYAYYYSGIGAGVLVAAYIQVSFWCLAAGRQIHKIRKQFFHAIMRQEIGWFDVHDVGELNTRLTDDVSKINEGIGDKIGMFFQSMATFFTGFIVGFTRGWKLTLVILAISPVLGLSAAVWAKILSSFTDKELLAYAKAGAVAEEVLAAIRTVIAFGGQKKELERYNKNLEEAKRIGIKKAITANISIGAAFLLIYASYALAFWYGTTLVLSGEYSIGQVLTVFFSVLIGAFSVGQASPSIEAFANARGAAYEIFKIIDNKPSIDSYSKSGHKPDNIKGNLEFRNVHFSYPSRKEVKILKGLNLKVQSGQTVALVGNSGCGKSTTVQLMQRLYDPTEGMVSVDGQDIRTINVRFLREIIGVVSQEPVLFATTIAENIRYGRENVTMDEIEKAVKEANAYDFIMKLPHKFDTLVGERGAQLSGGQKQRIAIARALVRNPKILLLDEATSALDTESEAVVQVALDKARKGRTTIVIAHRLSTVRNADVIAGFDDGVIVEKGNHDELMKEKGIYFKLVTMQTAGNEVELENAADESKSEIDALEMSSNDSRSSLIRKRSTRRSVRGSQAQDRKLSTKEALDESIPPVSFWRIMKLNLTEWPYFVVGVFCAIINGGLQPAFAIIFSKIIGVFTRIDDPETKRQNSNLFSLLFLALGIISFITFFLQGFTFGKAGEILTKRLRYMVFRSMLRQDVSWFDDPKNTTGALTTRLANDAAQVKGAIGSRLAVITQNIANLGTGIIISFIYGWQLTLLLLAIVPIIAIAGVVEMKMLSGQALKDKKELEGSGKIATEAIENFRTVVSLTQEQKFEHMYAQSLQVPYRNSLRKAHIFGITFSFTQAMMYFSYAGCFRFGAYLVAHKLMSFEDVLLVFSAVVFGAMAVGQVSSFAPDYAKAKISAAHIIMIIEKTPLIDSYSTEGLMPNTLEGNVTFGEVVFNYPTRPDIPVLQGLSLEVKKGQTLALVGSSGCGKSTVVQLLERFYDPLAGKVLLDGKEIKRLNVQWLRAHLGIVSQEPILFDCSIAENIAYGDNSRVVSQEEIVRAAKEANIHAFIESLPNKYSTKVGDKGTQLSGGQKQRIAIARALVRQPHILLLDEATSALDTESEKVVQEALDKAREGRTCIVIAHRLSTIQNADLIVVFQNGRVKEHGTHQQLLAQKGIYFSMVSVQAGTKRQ
Chain of multidrug-resistance-associated protein-1 (MRP1) (P33527 whole entry): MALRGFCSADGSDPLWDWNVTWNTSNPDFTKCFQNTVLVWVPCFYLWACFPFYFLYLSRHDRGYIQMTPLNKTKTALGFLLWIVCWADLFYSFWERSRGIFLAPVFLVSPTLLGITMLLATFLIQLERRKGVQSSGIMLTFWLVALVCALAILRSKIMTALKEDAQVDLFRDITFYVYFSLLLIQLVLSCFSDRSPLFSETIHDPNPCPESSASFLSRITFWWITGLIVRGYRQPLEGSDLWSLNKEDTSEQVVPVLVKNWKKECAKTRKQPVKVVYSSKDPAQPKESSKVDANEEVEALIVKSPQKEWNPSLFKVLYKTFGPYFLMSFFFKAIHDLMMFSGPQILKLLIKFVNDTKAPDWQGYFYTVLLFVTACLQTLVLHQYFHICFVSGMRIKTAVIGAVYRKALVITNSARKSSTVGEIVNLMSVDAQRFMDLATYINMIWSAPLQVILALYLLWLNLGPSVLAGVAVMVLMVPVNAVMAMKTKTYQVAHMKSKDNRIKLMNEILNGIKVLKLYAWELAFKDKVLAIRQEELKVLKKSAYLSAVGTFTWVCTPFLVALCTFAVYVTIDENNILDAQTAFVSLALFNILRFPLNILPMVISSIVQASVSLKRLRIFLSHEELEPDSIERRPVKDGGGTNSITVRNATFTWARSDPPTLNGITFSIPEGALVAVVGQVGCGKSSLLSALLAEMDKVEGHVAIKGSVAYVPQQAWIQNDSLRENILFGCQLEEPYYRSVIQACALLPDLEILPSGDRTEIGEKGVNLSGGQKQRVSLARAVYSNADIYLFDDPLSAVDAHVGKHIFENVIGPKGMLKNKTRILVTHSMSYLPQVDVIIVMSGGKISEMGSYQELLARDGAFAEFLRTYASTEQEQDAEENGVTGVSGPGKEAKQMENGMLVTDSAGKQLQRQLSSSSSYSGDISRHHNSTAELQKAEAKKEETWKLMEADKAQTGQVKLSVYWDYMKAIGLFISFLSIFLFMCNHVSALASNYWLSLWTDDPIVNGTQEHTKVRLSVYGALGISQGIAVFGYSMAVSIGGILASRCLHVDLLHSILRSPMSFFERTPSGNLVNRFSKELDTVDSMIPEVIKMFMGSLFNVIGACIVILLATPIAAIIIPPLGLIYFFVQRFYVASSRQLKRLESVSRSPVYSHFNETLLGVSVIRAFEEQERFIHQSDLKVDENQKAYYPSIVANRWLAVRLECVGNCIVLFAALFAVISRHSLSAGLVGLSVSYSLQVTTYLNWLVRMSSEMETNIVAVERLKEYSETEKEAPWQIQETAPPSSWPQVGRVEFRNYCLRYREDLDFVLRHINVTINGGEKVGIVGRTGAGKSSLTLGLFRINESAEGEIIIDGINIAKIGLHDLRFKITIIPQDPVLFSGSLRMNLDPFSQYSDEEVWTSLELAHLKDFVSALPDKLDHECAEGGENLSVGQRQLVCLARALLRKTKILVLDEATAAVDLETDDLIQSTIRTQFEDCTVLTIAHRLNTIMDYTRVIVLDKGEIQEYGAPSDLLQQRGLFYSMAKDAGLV
Chain of P-gp versus MRP1 (P08183 whole entry): as the sequence (P08183 whole entry) above

Compound: CCOc1ccc(-c2c(C=O)cn3c2-c2cc(OCC)c(OCC)cc2CC3)cc1OCC [Compound 4c]
- pIC50 ([1]; ref [8]): 4.93
- pIC50 ([2]; ref [8]): 4.35
- pIC50 (P-glycoprotein (P-gp) [3]): > 6.30
- pIC50 ([4]; ref [8]): 4.67
- pIC50 ([5]; ref [8]): 4.71

- Hydrolytic stability at pH 2 ([7]; 0.01 M HClaq, pH 2, 25 °C): stable
- Hydrolytic stability at pH 7.4 ([7]; 50 mM PBS, pH 7.4, 25 °C): stable
- Predicted fraction bound to HSA [8]: less than 40%
- pIC50 (P-glycoprotein (P-gp) [10]): > 6.30 and 6.35
- pIC50 [13]: 4.92
- Log k′w [14]: 4.31
- pKd [15]: 4.57
- solubility at 2 h [16, 17]: 41.7 µM
- solubility at 2 h ([16]; pH 7.4, aqueous buffer, ‘practically insoluble’ threshold of US and European Pharmacopoeia, read-out: Solubility category in buffered water solution at neutral pH): < 100 µg/mL
Compound: CCOc1ccc(-c2c(CN3CCOCC3)cn3c2-c2cc(OCC)c(OCC)cc2CC3)cc1OCC [Compound 8c, 1-(3,4-Diethoxyphenyl)-8,9-diethoxy-2-(morpholin-4-ylmethyl)-5,6-dihydropyrrolo[2,1-a]isoquinoline]
- pIC50 [6]: 4.76
- pIC50 ([6]; Homo sapiens, HeLa): > 4.68
- pIC50 ([9]; 72 h): 4.68
- pIC50 ([9]; Homo sapiens, A549, 72 h): > 4.68
- selectivity ratio (P-gp versus MRP1): ~30
- pIC50 [11]: > 4.70 and 4.73
- pIC50 ([11]; Homo sapiens, Rhabdomyosarcoma cell): > 4.68
- pIC50 ([12]; 72 h): 4.80
- pIC50 ([12]; Homo sapiens, HCT-116, 72 h): > 4.68

Compound: COc1cc2c(cc1OC)-c1c(-c3ccc(Cl)cc3)c(C=O)cn1CC2 [Compound 4a]
- pIC50 ([1]; ref [5]): 4.66
- pIC50 (P-glycoprotein (P-gp) [10]): 4.60
- P-gp/MRP1 selectivity (toward P-gp) (P-glycoprotein (P-gp) [10]; ratio of MRP1 and P-gp inhibition potency): unselective
- pIC50 [13]: 4.66
- pIC50 ([2]; ref [5]): 4.48
- Log k′w [14]: 4.32
- pKd [15]: 5.80
- solubility at 2 h [16, 17]: 6.66 µM
- pIC50 ([4]; ref [5]): 4.75
- pIC50 ([5]; ref [5]): 4.41
